Patent publication US11732007B2, “Therapeutic compounds and methods” (The Regents of the University of California, priority 2020, dated 2023)

Tests used:
hMMP-12 = target: T1, hMMP-12 (Homo sapiens, UniProt P39900); experiment: SensoLyte 520 MMP-12 fluorimetric enzyme inhibition assay; type: biochemical; conditions: for IC50: catalytic domain, tested side by side
T1 construct: The catalytic domain (Gly106-Gly263) of human macrophage metalloelastase (hMMP-12); made in house; host or cells: E. coli BL21 Codon Plus (pET21 vector, NdeI/BamHI)
T1 sequence (P39900 106-263): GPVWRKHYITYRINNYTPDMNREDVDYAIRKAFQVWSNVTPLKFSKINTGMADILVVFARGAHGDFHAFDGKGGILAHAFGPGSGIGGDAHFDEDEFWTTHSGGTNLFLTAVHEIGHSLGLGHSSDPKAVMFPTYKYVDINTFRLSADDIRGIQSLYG

MMP-1 = target: T2, MMP-1 (Homo sapiens, UniProt P03956); experiment: SensoLyte 520 fluorimetric selectivity assay, MMP-1; type: biochemical; conditions: agents tested at 25 nM or at 4 nM
T2 construct: purchased AnaSpec AS-55575-1
T2 sequence (P03956 100-269 limits assumed): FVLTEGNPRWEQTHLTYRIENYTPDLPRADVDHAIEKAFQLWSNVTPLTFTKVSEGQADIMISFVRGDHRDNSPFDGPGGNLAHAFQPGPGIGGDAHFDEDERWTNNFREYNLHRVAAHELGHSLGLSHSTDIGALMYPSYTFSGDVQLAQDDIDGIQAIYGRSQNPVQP
Experimental: (§1) FIG. 2. […] For each indicated enzyme, agents were tested at 25 nM or at 4 nM and percent inhibition was measured using the catalytic domains of the respective enzyme and the SensoLyte® 520 Fluorimetric Assay Kit (Anaspec).
(§2) Enzymatic assays to profile the inhibitory effects of all the compounds on hMMP-12, and against a panel of 5 closely related MMPs (MMP-1, MMP-3, MMP-9, MMP-13, and MMP-14) were performed using the SensoLyte® 520 Fluorimetric Assay Kit (AnaSpec) for each MMPs. Assay kit for MMP-12 Cat. #AS-71157, MMP-1 Cat. #AS-71150, MMP-3 Cat. #AS-71152, MMP-9 Cat. #AS-71155, MMP-13 Cat. #AS-71156, and MMP-14 Cat. #AS-72025. The assay was performed according to their protocols. Briefly, 10 ng of each MMPs were incubated on a black flat-bottom 96-well plate (Cat. #9502867) at RT for 15 minutes in absence or in presence of different concentration of each compound in a total volume of 50 μL. After 15 minutes, 50 μL of each substrate solution were added. The reagents were mixed together by shaking the plate gently for 30 sec. Immediately after the fluorescence was measured using the VICTOR X5 microplate reader (PerkinElmer) every 3 min for 60 min. All the measurement were performed in duplicates. The IC50 values were calculated from dose-response curves using GraphPad Prism 7.

MMP-3 = target: T3, MMP-3 (Homo sapiens, UniProt P08254); experiment: SensoLyte 520 fluorimetric selectivity assay, MMP-3; type: biochemical; conditions: agents tested at 25 nM or at 4 nM
T3 construct: purchased AnaSpec 72006
T3 sequence (P08254 100-272 limits assumed): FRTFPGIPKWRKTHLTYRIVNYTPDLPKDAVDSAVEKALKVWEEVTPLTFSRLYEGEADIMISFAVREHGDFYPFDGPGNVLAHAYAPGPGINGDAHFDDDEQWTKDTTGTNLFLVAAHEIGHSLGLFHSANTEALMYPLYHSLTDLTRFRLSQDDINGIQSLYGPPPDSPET
Experimental: as §1, §2

MMP-9 = target: T4, MMP-9 (Homo sapiens, UniProt P14780); experiment: SensoLyte 520 fluorimetric selectivity assay, MMP-9; type: biochemical; conditions: agents tested at 25 nM or at 4 nM
T4 construct: purchased AnaSpec AS-55576-1
T4 sequence (P14780 107-444 limits assumed): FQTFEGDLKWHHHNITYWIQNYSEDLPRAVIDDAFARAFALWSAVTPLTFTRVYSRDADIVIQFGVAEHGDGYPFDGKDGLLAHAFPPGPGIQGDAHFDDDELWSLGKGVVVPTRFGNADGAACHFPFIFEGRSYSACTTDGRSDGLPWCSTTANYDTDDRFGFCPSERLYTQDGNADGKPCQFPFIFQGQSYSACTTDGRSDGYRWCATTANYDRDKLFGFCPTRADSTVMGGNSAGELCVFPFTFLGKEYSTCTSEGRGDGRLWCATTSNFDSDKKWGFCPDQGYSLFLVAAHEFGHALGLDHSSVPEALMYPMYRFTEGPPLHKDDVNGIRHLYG
Experimental: as §1, §2

MMP-13 = target: T5, MMP-13 (Homo sapiens, UniProt P45452); experiment: SensoLyte 520 fluorimetric selectivity assay, MMP-13; type: biochemical; conditions: agents tested at 25 nM or at 4 nM
T5 construct: purchased AnaSpec AS-72257
Experimental: as §1, §2

MMP-14 = target: T6, MMP-14 (Homo sapiens, UniProt P50281); experiment: SensoLyte 520 fluorimetric selectivity assay, MMP-14; type: biochemical; conditions: agents tested at 25 nM or at 4 nM
T6 construct: purchased AnaSpec AS-72068
Experimental: as §1, §2

[1] = Preliminary pharmacokinetic study in mice; type: in vivo, Balb-C mice
Experimental: (§3) Compound 25 was administered i.p. (30 mg/kg) to 5 Balb-C mice. Retrorbital bleeding was used to collect blood samples at times 30 min, 1 h, 2 h, 4 h, 8 h, and 24 h and the samples analyzed for compound 25 plasma concentration via extraction followed by LC/MS and compared to a standard calibration curve prepared with purified agent. Compound 25 was soluble in 10% DMSO, 40% PEG400, and 10% (2-hydroxypropyl)-Beta-cyclodextrin in PBS. Mice weight varied between 22 g and 26 g, each receiving approximately 200 μL (weight adjusted to administer 30 mg/Kg of compound 25) of formulated agent. The experiments were conducted at the University of California San Diego in vivo pharmacology core facility, according to a UCSD Institutional Animal Care and Use Committee (IACUC) approved protocol.

[2] = system: murine model of elastase-induced emphysema; experiment: Murine model of elastase-induced emphysema, mean linear intercept analysis; type: in vivo, C57BL/6 mice; conditions: i.p. once daily for 7 days from day 2 after PPE, day 21
Experimental: C57BL/6 mice were purchased from Jackson Laboratories (Bar Harbor, Me.) and maintained in a pathogen-free vivarium at room temperature with 12-hour light/dark cycles. All mice were 6-8 weeks and both male and female mice were used for the experiment. All animal-use and euthanasia protocols were approved by the UC Riverside Institutional Animal Care and Use Committee (IACUC).
C57BL/6 mice were given a single intranasal instillation with 50 μl of saline or 0.9 U porcine pancreas elastase (Sigma-Aldrich, St. Louis, Mo.) diluted in phosphate buffered saline (IX PBS). Two days following the instillation, mice were treated with 200 μl of vehicle control, MMP-408, compound 25, or compound 26 via intraperitoneal injection. Mice were continually given treatment once a day for 7 consecutive days. Twenty-one days following the initial intranasal instillation, mice were sacrificed. Bronchoalveolar lavage fluid (BALF) was collected by making an incision in the trachea and inserting a cannula with syringe (BD Biosciences, CA), then washing with 1 mL of cold PBS three times. BALF was centrifuged at 1200 RPM for 5 minutes, then cell pellets were combined and resuspended in 200 μl of PBS to be used in cell counts and cell differential analysis. The lungs were isolated, slowly filled with 1 mL of 10% formalin then hung in formalin overnight for fixation. The following day, lungs were moved into 70% ethanol and stored at 4° C. until paraffin-embedding.
Mouse lungs were fixed in formalin and paraffin-embedded, then sectioned and stained in hematoxylin and eosin by the University of California Irvine Department of Pathology Experimental Tissue Resource Core Facility. The lungs were imaged on a Revolve light microscope (La Jolla, Calif.) at 10× magnification. MLI measurements were calculated using an established indirect method on ImageJ software. Briefly, alveolar walls/intersections were counted along a line of known length, then length was divided by the number of intersections to calculate MLI. This process was repeated for a total of five MLI measurements per image, with there being four images per mouse lung. The average MLI measurement for each lung was calculated and statistically analyzed using GraphPad Prism software (San Diego, Calif.).

[3] = Solubility in dosing formulation; type: physicochemical; conditions: 10% DMSO, 40% PEG400, 10% (2-hydroxypropyl)-Beta-cyclodextrin in PBS
Experimental: as §3

[4] = 30 mg/kg intraperitoneally, mice

SMILES | mode of MMP-12 inhibition (hMMP-12) | IC50 (hMMP-12) | inhibition of MMP-1 (MMP-1) | inhibition of MMP-3 (MMP-3) | inhibition of MMP-9 (MMP-9) | inhibition of MMP-13 (MMP-13) | inhibition of MMP-14 (MMP-14) | peak plasma drug concentration [1, 4] | peak plasma drug concentration (molar) [1, 4] | peak plasma concentration relative to in vitro IC90 ([1]; mouse, in vivo) | MLI measurements compared to saline (no PPE)-treated mice [2] | emphysema-like pathology compared to PPE+vehicle-treated mice [2] | solubility in formulation [3]
COc1ccc(CC[C@@H](NC(=O)[C@H](CCCc2ccccc2)NC(=O)CN2CCOCC2)C(=O)N[C@H](Cc2ccc(C)cc2)C(=O)NO)cc1 [Compound 25] | competitive inhibitors | ~4 nM | did not display significant inhibition | appreciable inhibition | did not display significant inhibition | did not display significant inhibition | did not display significant inhibition | ~400 ng/mL | ~580 nM | > 20 times | no significant differences | significant decrease | soluble
COc1ccc(CCC[C@H](NC(=O)CN2CCOCC2)C(=O)N[C@H](CCc2ccc(OC)cc2)C(=O)N[C@H](Cc2ccc(C)cc2)C(=O)NO)cc1 [Compound 26] | competitive inhibitors | ~4 nM | did not display significant inhibition | appreciable inhibition | did not display significant inhibition | did not display significant inhibition | did not display significant inhibition | – | – | – | no significant differences | significant decrease | –
CNC(=O)[C@H](Cc1c[nH]c2ccccc12)NC(=O)[C@@H](CC(=O)NO)CC(C)C [GM6001, reference compound] | – | ~2.5 nM | – | appreciable inhibition | – | – | – | – | – | – | – | – | –
COC(=O)Nc1ccc2oc3cc(S(=O)(=O)N[C@H](C(=O)O)C(C)C)ccc3c2c1 [MMP408, reference compound] | – | – | – | – | – | – | – | – | – | – | no significant differences | significant decrease | –
